The values that follow come from patent US12186294B2, “Modulators of prostate-specific g-protein receptor (PSGR/OR51E2) and methods of using same” (Duke University, priority 2016, dated 2025).

Structures are written as SMILES. Square brackets hold non-standard residues; d marks the D form. Peptide text beside a SMILES is read from it.

The target of assay [1] is T1, OR51E2 (Homo sapiens, UniProt Q9H255).
T1 construct: expressed in transfected cells; host or cells: Hana3A cells (modified human embryonic kidney cells)
T1 sequence (Q9H255 1-320): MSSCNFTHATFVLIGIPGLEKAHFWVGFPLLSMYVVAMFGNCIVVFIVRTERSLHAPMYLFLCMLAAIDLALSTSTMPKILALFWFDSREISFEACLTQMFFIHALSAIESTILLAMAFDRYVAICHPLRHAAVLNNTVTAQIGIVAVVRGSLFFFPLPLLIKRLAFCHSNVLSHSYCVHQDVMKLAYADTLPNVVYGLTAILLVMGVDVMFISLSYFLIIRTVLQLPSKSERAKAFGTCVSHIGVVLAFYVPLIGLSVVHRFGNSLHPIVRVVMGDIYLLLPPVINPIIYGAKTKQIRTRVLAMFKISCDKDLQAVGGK
In words: in vitro luciferase assay (CRE-Luc) in Hana3A cells transfected with OR51E2. The assay is classed as cell-based. The following applies: for EC50: OR51E2 agonist, Hana3A cells, luciferase, read-out: EC50 (potency); for Efficacy: compared to the 1 mM PA response. As to the method: Hana3A cells (modified human embryonic kidney cells) were cultured in 96 well plates in M10PSF medium. LNCaP human prostate cancer cells were cultured in both RPMI medium and androgen deprived RPMI medium. Hana3A cells were transfected with CRE-Luc (CREB-dependent luciferase (Firefly)) and SV40-RL promoter plasmids, and pCI and OR51E2 plasmids. […] Upon ligand binding, an increase in cAMP drives the expression of Firefly luciferase. Increase in luminescence signal was measured with a luminometer and Optima Data Analysis software. The luminescent signal is directly proportional to receptor activation. A general schematic of a luciferase assay is shown in FIG. 5 and a schematic of the assay used in this Example is shown in FIG. 6.
The top 56 compounds from the VLS list were tested using the in vitro expression and luciferase assay. […] The biologically relevant concentrations of each metabolite were individually determined based on available data in the literature. If no data were available, compounds were tested in the range of 1 nM-100 μM. Responses were normalized to the response with 1 mM propionic acid (PA), a previously identified agonist, and also to a response with no-control.

Assay [2] relates to LNCaP cells. The following applies: cited from earlier work.
The subject of assay [3] is LNCaP cells. The experiment in a line: cell viability/proliferation assay of LNCaP cells (CellTiter-Glo). The assay is classed as cell-based, human. The following applies: 10 uM, 7 day incubation, vs untreated control. As to the method:
The NEtD status was assessed through analysis of viability and proliferation of LNCap cells using use CellTiter-Glo Luminescent cell viability assay (Promega). […] Viability and proliferation assays will also be conducted with OR51E2 ligands in RWPE-2 cells.
Furthermore, a cell viability/proliferation assay of prostate cancer LNCaP cells was performed using 13-cis RA during a 7 day incubation period.

In assay [4] the test system is LNCaP cells. The experiment in a line: RT-PCR assay of NED marker and OR51E2 transcript levels in LNCaP cells. The assay is classed as cell-based, human. As for the experimental part: To assess the differentiation status of LNCaP cells following treatment with an OR51E2 ligand, cells were exposed to the ligands for three days. Biological markers of NED were analyzed using an RT-PCR assay. The following markers were tested: neuron specific enolase (NSE) and α-methylacyl-CoA racemase (AMACR), an enzyme essential for isomerization of branched-chained fatty acids that is present at low levels in healthy prostate cells and increased in PCa and in NE-like cells. Furthermore, changes in the expression levels of OR51E2 and androgen receptor (AR) were determined. This experiment will also be conducted using RWPE-2 cells.
For example, 19-OH AD agonist treatment of LNCaP cells increased OR51E2 transcript levels. […] Further studies using siRNA gene knockdown assays, will determine whether activated/overexpressed OR51E2 is involved in NEtD.

Assay [5] has as its system LNCaP cells. In words: untargeted GC/MS metabolomics signatures of LNCaP cells treated with OR51E2 ligand. The assay is classed as cell-based, human. The following applies: 72 hours, 100 nM 19-OH AD, 250 μM AFMK, 1 mM PA. As to the method: Metabolomics signatures were assessed using untargeted gas chromatography/mass spectrometry (GC/MS) to analyze LNCaP cells treated with an OR51E2 ligand for 3 days. There were six biological replicates for each treatment and the results were analyzed using MetaboAnalyst software. The same analysis will also be conducted using RWPE-2 cells.
GC/MS analysis detected greater than 250 features, and 115 of them were annotated. In FIG. 24A-24F, the top 15 metabolites are presented showing the most significant differences in cells treated with agonists when compared to control cells.

Setting [6] is: 12 days incubation with agonist, vs control.

Consider `O=C1CCCN1` [2-Pyrrolidinone], for which, in assay [1], the EC50 was found to be 1.9 nM and the Efficacy stood at 0.525.

As for `CC1=C(/C=C/C(C)=C/C=C/C(C)=C\C(=O)O)C(C)(C)CCC1` [13-cis RA, 13-cis retinoic acid], the “LNCaP cell growth and tumorigenic potential” value in assay [2] (Dahiya et al. (1994)) was “inhibits cell growth and decreases tumorigenic potential”. For the same molecule, the LNCaP growth result in assay [3] is “effectively impeded”. For the same molecule, the 50% inhibitory concentration (IC50) in assay [1] (responses normalized to 1 mM PA, read-out: IC50 (OR51E2 antagonist)) was 160 nM. Moreover, in assay [4] (10 μM, 3 days, vs control cells), the OR51E2 transcript levels result is listed as “significantly decreased”.

Take `C[C@]12CC[C@H]3[C@@H](CCC4=CC(=O)CC[C@@]43CO)[C@@H]1CCC2=O` [19-OH AD, 19-hydroxyandrost-4-ene-3,17-dione]: in assay [5], the “metabolite differences relative to controls (GC/MS)” value is recorded as “significant differences relative to controls”. Also, in assay [1], the EC50 stood at 0.15 nM and the Efficacy stood at 0.890. Also, in assay [4] (setting [6]), the OR51E2 transcript levels result was “increased”.

As to `COc1ccc(NC=O)c(C(=O)CCNC(C)=O)c1` [AFMK, N-acetyl-N-formyl-5-metoxykynurenamine], the “metabolite differences relative to controls (GC/MS)” value in assay [5] is recorded as “significant differences relative to controls”. Also, in assay [1], the EC50 was found to be 12000 nM and the Efficacy is given as 1.483.

Take `Nc1ncnc2c1ncn2C1OC(CO)C2OP(=O)(O)OC21` (stereo not drawn) [Adenosine 2′,3′-cyclic phosphate]: in assay [1], the EC50 turned out to be 26 nM and the Efficacy is 1.025.

On to `C[C@]12CCC(=O)CC1CC[C@@H]1[C@@H]2CC[C@]2(C)C(=O)CC[C@@H]12` (stereo partly drawn) [Androstanedione], for which, in assay [1], the EC50 turned out to be 0.79 nM and the Efficacy is on record as 0.888.

With `C[C@@H](N)C(=O)N[C@H](C)C(=O)O` [D-Alanyl-d-alanine] (H-[dA]-[dA]-OH), in assay [1], the EC50 is 14000 nM.

With `C[C@]12CC[C@H]3[C@@H](CCC4=CC(=O)CC[C@@]43C)[C@@H]1CC[C@H]2O` [Epitestosterone], in assay [1], the EC50 came out at 0.69 nM and the Efficacy amounted to 0.477.

As to `C[C@]12CC[C@@H]3c4ccc(O)cc4CC[C@H]3[C@@H]1C[C@@H](O)[C@@H]2O` [Estriol], in assay [1], the EC50 turned out to be 53000 nM.

Turning to `Cc1c(O)cc2c(c1C)OC(C)(CCC(=O)O)CC2` (stereo not drawn) [Gamma-CEHC], in assay [1], the EC50 was 6.4 nM and the Efficacy is 1.286.

Molecule `NCC(=O)O` [Glycine] yielded an Efficacy in assay [1] of 0.613.

As for `NCC(=O)NCC(=O)O` [Glycylglycine] (H-Gly-Gly-OH), the EC50 in assay [1] came to 11000 nM.

Turning to `O=C(O)C(=O)CO` [Hydroxypyruvic acid], in assay [1], the EC50 amounted to 420 nM and the Efficacy is reported as 1.100.

Take `OC[C@H]1O[C@H](O[C@H]2C(O)O[C@H](CO)[C@@H](O)[C@@H]2O)[C@H](O)[C@@H](O)[C@@H]1O` (stereo partly drawn) [Kojibiose]: in assay [1], the EC50 came to 1000 nM and the Efficacy came to 0.790.

Regarding `O=C(O)[C@@H](O)CO` [L-Glyceric acid], the EC50 in assay [1] amounted to 1.9 nM.

`CC(=O)N[C@@H](CCC(=O)O)C(=O)O` [N-Acetylglutamic acid]: the EC50 in assay [1] stood at 0.23 nM.

Turning to `CCC(=O)O` [PA, propionic acid], the “metabolite differences relative to controls (GC/MS)” value in assay [5] is “significant differences relative to controls”. Besides, in assay [4] (setting [6]), the AMACR transcript levels result was “increased” and the NSE transcript levels entry is listed as “increased”.

Take `CCCCCCCCCCCCCCCC(=O)O` [Palmitic acid]: in assay [1], the EC50 was found to be 9.8 nM and the Efficacy was found to be 0.927.

For `NC(N)=O` [Urea], in assay [1], the EC50 was found to be 23 nM and the Efficacy was found to be 0.580.

Turning to `CC(=O)/C=C/C1=C(C)CCCC1(C)C` [beta ionone, beta-ionone], the “proliferation of LNCaP cells” value in assay [2] (Neuhaus et al. (2009), OR51E2/PSGR activation) is “decreased”.
